Measurements as given in US20190161483A1, “METHODS FOR USING FXR AGONISTS” (Novartis AG, priority 2017, published 2019).

Columns and labels:
FGRS = FGRS effects (specificity)
NASH mice = experiment: Diet-induced (AMLN diet) obese, insulin-resistant NASH model; type: in vivo, mouse
Source text: A separate model for diet-induced NASH was developed as described by Trevaskis et al. Male C57BI6 mice aged ˜6 weeks were maintained on a high fat (40% kcal; Primex), high fructose (22% by weight), and high cholesterol (2% by weight) diet (Research Diets Inc., New Brunswick, N.J. cat. no. D09100301) for 26 weeks to induce NASH. Control animals received low-fat diet (10% kcal) with no fructose or cholesterol (Research Diets, cat. no. D09100304). […] . Expression of collagen, type I, alpha 1 (Col1a1) and tissue inhibitor of metalloproteinase 1 (Timp1) genes was analyzed by real time quantitative PCR.
. NASH was established in mice by feeding a high trans-fat, high fructose, and high cholesterol diet (AMLN diet) for 26 weeks followed by compound treatment for an additional 4 weeks. […] . […] .

[1] = Exposure prediction and exposure-response analysis in NASH patients; type: in vivo, human
NASH patients = experiment: Tropifexor 140-250 μg in patients with mild to moderate NASH and F2/F3 fibrosis; type: in vivo, human; settings: dose of about 140 μg to about 250 μg
Source text: Adult male and female patients with EITHER histologic evidence of NASH on liver biopsy within 2 years prior to randomization and elevated ALT, OR phenotypic diagnosis of NASH based on elevated ALT, Type 2 diabetes mellitus or elevated HbA1c and increased BMI, in both cases accompanied by liver fat >10% on centrally-read MRI.
Diagnosis of NASH: Adequate liver biopsy sample for evaluation by Central Reader to confirm Histologic evidence of NASH based on liver biopsy obtained during the Screening period or within 6 months before randomization with a diagnosis consistent with NASH, fibrosis level F2 or F3, and no diagnosis of alternative chronic liver diseases._AND_ALT ≥43 IU/L (males) or ≥28 IU/L (females).
Patients are assigned at the baseline visit to one of the following 3 treatment arms in a ratio of 1:1:1 in a blinded manner. Placebo capsules will be given to maintain blinding.
Arm 3: Once daily (morning, fasting) treatment with matching placebo for 48 weeks
The efficacy variables are: MRI for hepatic fat fraction, Liver Function Test, Liver histology, Coagulation test, Markers of liver fibrosis, NAFLD Fibrosis score, Fasting lipids, Fasting insulin and glucose, Soluble biomarkers.

FGF19 = experiment: Pharmacodynamic marker FGF19 with increasing doses; type: in vivo; settings: increasing doses up to 3000 μg
STAM mice = experiment: STAM model of NASH
Protocol: Further experiments in the STAM model were performed: 2-day old male C57BI/6J mice were injected with streptozotocin and placed on a high-fat diet (HFD) from weeks 4-12 (HFD-32; CLEA-Japan, Tokyo, Japan). […] Hematoxylin & eosin (H&E)-stained sections were evaluated for nonalcoholic fatty liver disease (NAFLD) activity score (NAS) according to previously defined criteria. Liver total lipid-extracts were isolated, and triglycerides were measured using the Triglyceride E-test (Wako Pure Chemical Industries, Ltd., Japan).
(§1) Liver sections were fixed in 4% paraformaldehyde for 48 h and shipped for histopathological analysis. Liver damage and collagen deposition were assessed by H&E staining and picrosirius red staining, respectively. […] Quantification of images was done with a positive pixel count algorithm using Aperio software (Aperio, Inc., Vista, Calif.).

[2] = tested on: ANIT-induced cholestatic rats; experiment: ANIT-induced cholestasis rat model
Protocol: Rats were sacrificed 3-5 h after the last dose, blood samples were collected by cardiac puncture, and serum biomarkers of cholestasis, namely alanine transaminase (ALT), aspartate transaminase (AST), alkaline phosphatase (ALP), total bilirubin, total BA, and gamma-glutamyl transpeptidase (GGT) were analyzed.
as §1

[3] = Oral gavage toxicity study in dogs for up to 39 weeks; settings: dog, in vivo
NASH subjects = settings: FLINT trial; placebo 6%; cited from earlier work

**Q.** For `O=C(O)c1cc(F)c2nc(N3C4CC[C@H]3C[C@H](OCc3c(-c5ccccc5OC(F)(F)F)noc3C3CC3)C4)sc2c1` [tropifexor, 2-[(1R,3r,5S)-3-({5-cyclopropyl-3-[2-(trifluoromethoxy)phenyl]-1,2-oxazol-4-yl}methoxy)-8-azabicyclo[3.2.1]octan-8-yl]-4-fluoro-1,3-benzothiazole-6-carboxylic acid], which FGRS effects (FGRS) is on record?
**A.** Its FGRS effects is “no FGRS effects”.

**Q.** What about the “IBA positive staining (inflammation)” value (NASH mice; 0.3 and 0.9 mg/kg dose groups) of the same compound?
**A.** Its value is “normalized to the same level of the control diet group”.

**Q.** What about the “liver histology: steatosis, ballooning, and inflammation” value (NASH mice; 0.3 and 0.9 mg/kg dose groups) of the same compound?
**A.** Its value is “completely reverted”.

**Q.** And the “collagen deposition in liver (trichrome staining)” value (NASH mice; even to levels lower than low-fat diet control mice)?
**A.** Its value is “strongly abrogates”.

**Q.** And the ALT/AST (NASH mice; high dose)?
**A.** Its ALT/AST is “reduced ALT/AST to an even greater extent”.

**Q.** And the hepatic crown-like structures (NASH mice; mid- and high dose)?
**A.** The hepatic crown-like structures was “completely eliminated”.

**Q.** What about the “ALT and AST levels” value (NASH mice; mid-dose level) of the same compound?
**A.** Its value is “normalized ALT and AST levels to that of control animals”.

**Q.** And the “mRNA levels of fibrogenic markers Col1a1 and TIMP1” value (NASH mice; mouse, in vivo)?
**A.** The value was “dramatically reduced”.

**Q.** What about the “steatosis by quantification of liver triglycerides” value (NASH mice; mouse, in vivo) of the same compound?
**A.** The value was “Dose-dependent reduction in steatosis”.

**Q.** What about the “ALT and AST” value (NASH mice; relative to vehicle-treated controls) of the same compound?
**A.** The value was “dose-dependent reduction”.

**Q.** And the predicted exposure ([1]; 200 μg daily in NASH patients)?
**A.** Its predicted exposure is “approximately 80 ng·hr/ml”.

**Q.** What about the “NASH patients achieving an AUC >40 ng*h/mL” value ([1]; 200 μg dose) of the same compound?
**A.** Its value is about 95%.

**Q.** What about the AUC ([1]; human, in vivo, oral, 200 ug, read-out: exposure level (AUC) in NASH patients) of the same compound?
**A.** The AUC was 80 ng·h/mL.

**Q.** What about the “patients with liver fibrosis improvement (at least 1 stage) with no worsening of NAS” value (NASH patients) of the same compound?
**A.** Its value is “about 50%”.

**Q.** And the “patients with normalization of liver enzymes” value (NASH patients)?
**A.** The value was at least 50%.

**Q.** What about the “patients with resolution of NASH (NAS 0 or 1) with no worsening of liver fibrosis” value (NASH patients) of the same compound?
**A.** Its value is “about 30%”.

**Q.** And the “pruritus outcomes (NASH PRO, 5-D pruritus or VAS)” value (NASH patients)?
**A.** Its value is “no significant pruritus outcomes”.

**Q.** And the “reduction of hepatic fat, absolute” value (NASH patients)?
**A.** Its value is 5%.

**Q.** And the FGF19 (FGF19)?
**A.** The FGF19 was “continues to rise”.

**Q.** What about the “NAFLD activity score (NAS)” value (STAM mice; doses 0.1 and 0.3 mg/kg, qd orally weeks 9-12) of the same compound?
**A.** The value was “significant decrease”.

**Q.** What about the fibrosis area (STAM mice; in comparison with baseline group) of the same compound?
**A.** Its fibrosis area is “decreased in comparison with baseline group”.

**Q.** And the “pericellular fibrosis (Sirius Red-positive areas)” value (STAM mice; mouse, in vivo)?
**A.** Its value is “statistically significant dose-dependent reduction”.

**Q.** What about the liver triglycerides (STAM mice; tropifexor qd orally weeks 9-12, relative to baseline group) of the same compound?
**A.** The liver triglycerides was “reduction in liver triglycerides”.

**Q.** What about the “levels of most cholestatic markers” value ([2]; 1.0 mg/kg dose, oral qd 5 days) of the same compound?
**A.** Its value is “normalized to corresponding levels of vehicle-treated non-cholestatic control animals”.

**Q.** What about the “collagen deposition and liver fibrosis” value ([2]; dose-dependent manner) of the same compound?
**A.** The value was “highly reduced”.

**Q.** What about the “quantitation of collagen deposition (fibrosis)” value ([2]; dose-dependent manner) of the same compound?
**A.** The value was “significantly decreased”.

**Q.** What about the “AST, ALT, total BAs, total bilirubin, and GGT levels” value ([2]; doses as low as 0.3 mg/kg, oral qd 5 days) of the same compound?
**A.** The value was “marked reduction”.

**Q.** What about the “liver histology: necrosis of the bile duct epithelium, bile duct hyperplasia, inflammatory cell infiltrates” value ([2]; versus vehicle-treated cholestatic rats) of the same compound?
**A.** Its value is “dose-dependent improvement”.

**Q.** What about the AUC(0-t) ([3]; female) of the same compound?
**A.** The AUC(0-t) was 507 ng·h/mL.

**Q.** And the AUC(0-t) ([3]; male)?
**A.** Its AUC(0-t) is 898 ng·h/mL.

**Q.** Which patients with pruritus (NASH subjects) does the source give for `CC[C@H]1[C@@H](O)[C@@H]2[C@H](CC[C@]3(C)[C@@H]([C@H](C)CCC(=O)O)CC[C@@H]23)[C@@]2(C)CC[C@@H](O)C[C@@H]12` [OCA, 6α-ethyl-chenodeoxycholic acid] here?
**A.** The patients with pruritus was 23%.
